Results on 1 compound are retold here after BindingDB's records for doi:10.1016/S0960-894X(00)80421-7 (1992).

This assay in a line: Tested for the ability to inhibit Ins(1,4,5)P 3-phosphatase.

`OC1C(O)C(OP(O)(O)=S)C(OP(O)(O)=S)C(O)C1OP(O)(O)=S` (stereo not drawn) [(-)-chiro-inositol 1,4,6-trisphosphorothioate]: the affinity, expressed as Ki, was 978 µM.
